From US20240158446A1, “CYCLIC COMPOUND HAVING SELECTIVE INHIBITORY ACTION ON KRAS OVER HRAS AND NRAS” (CHUGAI SEIYAKU KABUSHIKI KAISHA, priority 2021, published 2024)
Where a SMILES comes first, the peptide text is derived from it. Bridges are numbered along the chain shown (N, C = ends). [ ]: non-standard residue; d: D form. The star is where a group is joined. hPhe(3-Cl-4-CF3) = N[C@@H](CCc1ccc(C(F)(F)F)c(Cl)c1)C(=O)O; NPrPhe(4-CF3) = CCCN[C@@H](Cc1ccc(C(F)(F)F)cc1)C(=O)O; NMeGly(cPent) = CN[C@H](C(=O)O)C1CCCC1; Pro(4,4-F2) = O=C(O)[C@@H]1CC(F)(F)CN1; Hyp = O=C(O)[C@@H]1C[C@@H](O)CN1; NMeL = CN[C@@H](CC(C)C)C(=O)O; Morpholide = C1CN(*)CCO1; NMeA = CN[C@@H](C)C(=O)O; Ac5c = NC1(C(=O)O)CCCC1; Aze = O=C(O)[C@@H]1CCN1; Ac4c = NC1(C(=O)O)CCC1; Sar = CNCC(=O)O

Legend:
[1] = molecular target: GDP-bound HRAS wild-type protein (Homo sapiens, UniProt P01112); experiment: Binding to HRAS by surface plasmon resonance (SPR), Single Cycle Kinetics; settings: SPR, GDP-bound HRAS wild-type protein vs GDP-bound KRAS wild-type protein
GDP-bound HRAS wild-type protein, sequence (P01112 whole entry): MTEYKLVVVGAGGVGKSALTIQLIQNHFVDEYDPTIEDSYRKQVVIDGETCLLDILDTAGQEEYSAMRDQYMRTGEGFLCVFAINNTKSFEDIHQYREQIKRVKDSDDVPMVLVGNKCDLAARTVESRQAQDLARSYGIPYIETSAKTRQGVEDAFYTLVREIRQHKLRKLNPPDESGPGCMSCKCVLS

[2] = molecular target: GDP-bound NRAS wild-type protein (Homo sapiens, UniProt P01111); experiment: Binding to NRAS by surface plasmon resonance (SPR), Single Cycle Kinetics; settings: SPR, GDP-bound NRAS wild-type protein vs GDP-bound KRAS wild-type protein
GDP-bound NRAS wild-type protein, sequence (P01111 whole entry): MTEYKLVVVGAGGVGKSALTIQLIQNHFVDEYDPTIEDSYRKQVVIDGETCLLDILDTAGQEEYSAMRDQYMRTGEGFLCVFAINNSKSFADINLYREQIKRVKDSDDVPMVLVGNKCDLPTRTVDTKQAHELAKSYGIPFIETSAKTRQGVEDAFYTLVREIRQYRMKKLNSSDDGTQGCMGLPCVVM

[3] = molecular target: GDP-bound KRAS wild-type protein (Homo sapiens, UniProt P01116); experiment: Binding to KRAS by surface plasmon resonance (SPR), Single Cycle Kinetics; settings: SPR Single Cycle Kinetics, GDP-bound KRAS wild-type protein, 1:1 binding model; read-out: KRAS KD
GDP-bound KRAS wild-type protein, sequence (P01116 whole entry): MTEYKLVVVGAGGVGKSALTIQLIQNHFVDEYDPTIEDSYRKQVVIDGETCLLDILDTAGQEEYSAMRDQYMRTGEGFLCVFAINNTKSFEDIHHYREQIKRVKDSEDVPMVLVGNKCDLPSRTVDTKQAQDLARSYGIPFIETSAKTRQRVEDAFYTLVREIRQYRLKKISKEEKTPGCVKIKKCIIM

Kd [3]	Compound	HRAS/KRAS (ratio of KD value for HRAS to KD value for KRAS) [1]	NRAS/KRAS (ratio of KD value for NRAS to KD value for KRAS) [2]
1.3 nM	CCCN1C(=O)[C@@H]2CCN2C(=O)[C@H](C)N(C)C(=O)[C@H]([C@@H](C)CC)NC(=O)[C@H](CC(C)C)N(C)C(=O)C[C@@H](C(=O)N2CCOCC2)NC(=O)[C@H](C2CCCC2)N(C)C(=O)C2(CCCC2)NC(=O)[C@@H]2CC(F)(F)CN2C(=O)[C@H](CCc2ccc(C(F)(F)F)c(Cl)c2)NC(=O)CN(C)C(=O)[C@@H]1Cc1ccc(C(F)(F)F)cc1 [PP0345] ([NMeL]I[NMeA][Aze][NPrPhe(4-CF3)][Sar][hPhe(3-Cl-4-CF3)][Pro(4,4-F2)][Ac5c][NMeGly(cPent)]D-Morpholide; lactam N-11)	B (a compound having 3 or more and less than 10 is denoted as B)	C (A compound having a KD ratio of 0.1 or more and less than 3 is denoted as C)
1.2 nM	CCCN1C(=O)[C@@H]2CCN2C(=O)[C@H](C)N(C)C(=O)[C@H]([C@@H](C)CC)NC(=O)[C@H](CC(C)C)N(C)C(=O)C[C@@H](C(=O)N2CCOCC2)NC(=O)[C@H](C2CCCC2)N(C)C(=O)C2(CCC2)NC(=O)[C@@H]2CC(F)(F)CN2C(=O)[C@H](CCc2ccc(C(F)(F)F)c(Cl)c2)NC(=O)CN(C)C(=O)[C@@H]1Cc1ccc(C(F)(F)F)cc1 [PP0346] ([NMeL]I[NMeA][Aze][NPrPhe(4-CF3)][Sar][hPhe(3-Cl-4-CF3)][Pro(4,4-F2)][Ac4c][NMeGly(cPent)]D-Morpholide; lactam N-11)	B (a compound having 3 or more and less than 10 is denoted as B)	C (A compound having a KD ratio of 0.1 or more and less than 3 is denoted as C)
0.36 nM	CCCN1C(=O)[C@@H]2CCN2C(=O)[C@H](C)N(C)C(=O)[C@H]([C@@H](C)CC)NC(=O)[C@H](CC(C)C)N(C)C(=O)C[C@@H](C(=O)N2CCOCC2)NC(=O)[C@H](C2CCCC2)N(C)C(=O)C2(CCCC2)NC(=O)[C@@H]2C[C@@H](OCC)CN2C(=O)[C@H](CCc2ccc(C(F)(F)F)c(Cl)c2)NC(=O)CN(C)C(=O)[C@@H]1Cc1ccc(C(F)(F)F)cc1 [PP0347] ([NMeL]I[NMeA][Aze][NPrPhe(4-CF3)][Sar][hPhe(3-Cl-4-CF3)][Hyp](Et)[Ac5c][NMeGly(cPent)]D-Morpholide; lactam N-11)	B (a compound having 3 or more and less than 10 is denoted as B)	C (A compound having a KD ratio of 0.1 or more and less than 3 is denoted as C)
0.38 nM	CCCN1C(=O)[C@@H]2CCN2C(=O)[C@H](C)N(C)C(=O)[C@H]([C@@H](C)CC)NC(=O)[C@H](CC(C)C)N(C)C(=O)C[C@@H](C(=O)N2CCOCC2)NC(=O)[C@H](C2CCCC2)N(C)C(=O)C2(CCC2)NC(=O)[C@@H]2C[C@@H](OCC)CN2C(=O)[C@H](CCc2ccc(C(F)(F)F)c(Cl)c2)NC(=O)CN(C)C(=O)[C@@H]1Cc1ccc(C(F)(F)F)cc1 [PP0348] ([NMeL]I[NMeA][Aze][NPrPhe(4-CF3)][Sar][hPhe(3-Cl-4-CF3)][Hyp](Et)[Ac4c][NMeGly(cPent)]D-Morpholide; lactam N-11)	B (a compound having 3 or more and less than 10 is denoted as B)	C (A compound having a KD ratio of 0.1 or more and less than 3 is denoted as C)
0.73 nM	CCCN1C(=O)[C@@H]2CCN2C(=O)CN(C)C(=O)[C@H]([C@@H](C)CC)NC(=O)[C@H](CC(C)C)N(C)C(=O)C[C@@H](C(=O)N2CCOCC2)NC(=O)[C@H](C2CCCC2)N(C)C(=O)C2(CCCC2)NC(=O)[C@@H]2CCCN2C(=O)[C@H](CCc2ccc(C(F)(F)F)c(Cl)c2)NC(=O)CN(C)C(=O)[C@@H]1Cc1ccc(C(F)(F)F)cc1 [PP0349] ([NMeL]I[Sar][Aze][NPrPhe(4-CF3)][Sar][hPhe(3-Cl-4-CF3)]P[Ac5c][NMeGly(cPent)]D-Morpholide; lactam N-11)	B (a compound having 3 or more and less than 10 is denoted as B)	C (A compound having a KD ratio of 0.1 or more and less than 3 is denoted as C)
1.1 nM	CCCN1C(=O)[C@@H]2CCN2C(=O)CN(C)C(=O)[C@H]([C@@H](C)CC)NC(=O)[C@H](CC(C)C)N(C)C(=O)C[C@@H](C(=O)N2CCOCC2)NC(=O)[C@H](C2CCCC2)N(C)C(=O)C2(CCC2)NC(=O)[C@@H]2CCCN2C(=O)[C@H](CCc2ccc(C(F)(F)F)c(Cl)c2)NC(=O)CN(C)C(=O)[C@@H]1Cc1ccc(C(F)(F)F)cc1 [PP0350] ([NMeL]I[Sar][Aze][NPrPhe(4-CF3)][Sar][hPhe(3-Cl-4-CF3)]P[Ac4c][NMeGly(cPent)]D-Morpholide; lactam N-11)	B (a compound having 3 or more and less than 10 is denoted as B)	C (A compound having a KD ratio of 0.1 or more and less than 3 is denoted as C)
1.1 nM	CCCN1C(=O)[C@@H]2CCN2C(=O)CN(C)C(=O)[C@H]([C@@H](C)CC)NC(=O)[C@H](CC(C)C)N(C)C(=O)C[C@@H](C(=O)N2CCOCC2)NC(=O)[C@H](C2CCCC2)N(C)C(=O)C2(CCCC2)NC(=O)[C@@H]2CC(F)(F)CN2C(=O)[C@H](CCc2ccc(C(F)(F)F)c(Cl)c2)NC(=O)CN(C)C(=O)[C@@H]1Cc1ccc(C(F)(F)F)cc1 [PP0351] ([NMeL]I[Sar][Aze][NPrPhe(4-CF3)][Sar][hPhe(3-Cl-4-CF3)][Pro(4,4-F2)][Ac5c][NMeGly(cPent)]D-Morpholide; lactam N-11)	B (a compound having 3 or more and less than 10 is denoted as B)	C (A compound having a KD ratio of 0.1 or more and less than 3 is denoted as C)
0.82 nM	CCCN1C(=O)[C@@H]2CCN2C(=O)CN(C)C(=O)[C@H]([C@@H](C)CC)NC(=O)[C@H](CC(C)C)N(C)C(=O)C[C@@H](C(=O)N2CCOCC2)NC(=O)[C@H](C2CCCC2)N(C)C(=O)C2(CCC2)NC(=O)[C@@H]2CC(F)(F)CN2C(=O)[C@H](CCc2ccc(C(F)(F)F)c(Cl)c2)NC(=O)CN(C)C(=O)[C@@H]1Cc1ccc(C(F)(F)F)cc1 [PP0352] ([NMeL]I[Sar][Aze][NPrPhe(4-CF3)][Sar][hPhe(3-Cl-4-CF3)][Pro(4,4-F2)][Ac4c][NMeGly(cPent)]D-Morpholide; lactam N-11)	B (a compound having 3 or more and less than 10 is denoted as B)	C (A compound having a KD ratio of 0.1 or more and less than 3 is denoted as C)
0.47 nM	CCCN1C(=O)[C@@H]2CCN2C(=O)CN(C)C(=O)[C@H]([C@@H](C)CC)NC(=O)[C@H](CC(C)C)N(C)C(=O)C[C@@H](C(=O)N2CCOCC2)NC(=O)[C@H](C2CCCC2)N(C)C(=O)C2(CCCC2)NC(=O)[C@@H]2C[C@@H](OCC)CN2C(=O)[C@H](CCc2ccc(C(F)(F)F)c(Cl)c2)NC(=O)CN(C)C(=O)[C@@H]1Cc1ccc(C(F)(F)F)cc1 [PP0353] ([NMeL]I[Sar][Aze][NPrPhe(4-CF3)][Sar][hPhe(3-Cl-4-CF3)][Hyp](Et)[Ac5c][NMeGly(cPent)]D-Morpholide; lactam N-11)	B (a compound having 3 or more and less than 10 is denoted as B)	C (A compound having a KD ratio of 0.1 or more and less than 3 is denoted as C)
